Laboratory results: ChEMBL document CHEMBL1158363, “Circular dichroism studies of type III collagen mimetic peptides with anti- or pro-aggregant activities on human platelets” (2009)
Activity calls are given as the source filed them. The rule behind the calls is not given here. Where a SMILES comes first, the peptide text is derived from it. [ ]: non-standard residue; d: D form. Hyp = O=C(O)[C@@H]1C[C@@H](O)CN1

System: Platelet
Assay: Inhibition of type III collagen-induced platelet aggregation in human platelet rich plasma at 1 mM
Type: functional

SMILES	inhibition	inhibition at 1000 µM
C[C@H](NC(=O)[C@@H]1C[C@@H](O)CN1C(=O)[C@@H](N)CCCCN)C(=O)N[C@@H](CCC(=O)O)C(=O)N1C[C@H](O)C[C@H]1C(=O)N[C@@H](C)C(=O)N1CCC[C@H]1C(=O)N[C@@H](CCCCN)C(=O)O (H-K[Hyp]AE[Hyp]APK-OH)	inactive	–
C[C@H](NC(=O)[C@@H]1C[C@@H](O)CN1C(=O)[C@H](CCC(=O)O)NC(=O)CNC(=O)[C@@H]1C[C@@H](O)CN1C(=O)[C@@H](N)CCCCN)C(=O)N1CCC[C@H]1C(=O)N[C@@H](CCCCN)C(=O)O (H-K[Hyp]GE[Hyp]APK-OH)	–	72.1%
NCCCC[C@H](NC(=O)[C@@H]1CCCN1C(=O)CNC(=O)[C@@H]1C[C@@H](O)CN1C(=O)[C@H](CCC(=O)O)NC(=O)CNC(=O)[C@@H]1C[C@@H](O)CN1C(=O)[C@@H](N)CCCCN)C(=O)O (H-K[Hyp]GE[Hyp]GPK-OH)	–	86.1%
NCCCC[C@H](NC(=O)[C@H](CCCCN)NC(=O)[C@@H]1C[C@@H](O)CN1C(=O)[C@@H]1C[C@@H](O)CN1)C(=O)N[C@@H](CCC(=O)O)C(=O)N1CCC[C@H]1C(=O)NCC(=O)NCC(=O)O (H-[Hyp][Hyp]KKEPGG-OH)	inactive	–
